The target of data set [1] is OASS. The arrangement: method as in PMID 7547955. The settings on record: earlier study; read-out: Kd, reported value; cited from earlier work.
Data set [2] concerns the target T1, StOASS (O-acetylserine sulfhydrylase) (Salmonella typhimurium, UniProt P0A1E3). The experiment in a line: PLP fluorescence titration of ligands with StOASS. It is filed as binding. The arrangement: His tag (N); made in house; host or cells: E. coli BL21(DE3), pET28a(+). As to conditions: for change of OASS PLP fluorescence upon addition of ligand: up to ~1 mM ligand. On the procedure: Titrations of ligands with StOASS were examined by monitoring changes in the active site pyridoxal 5'phosphate (PLP) fluorescence of OASS using a Varian spectrofluorometer. The excitation and emission wavelengths for monitoring PLP signal change upon ligand binding were 412 nm and 507 nm respectively. All experiments were done at 23.0 ± 1°C. Slit widths were set to 5 nm for all experiments and PMT voltage was adjusted to get maximum signal for a given protein concentration. Initial readings of both the sample, Fsamp,0 and buffer, Fbuf,0 were taken, with F0 = Fsamp,0-Fbuf,0 defined as the initial fluorescence of the sample. The sample cuvette was then titrated with aliquots of ligands and mixed, equilibrated for 2-5 minutes before measurement. Data points from five such measurements were averaged to obtain Fave,i. The relative fluorescence quenching upon ligand binding is defined as Qobs,i = (F0-Fobs,i)/F0. All measurements were corrected for dilution, and inner filter effects.
Binding of ligands to OASS was analyzed to obtain the equilibrium binding constant, Kobs = [PL]/[P]*[L], using a single or two independent site binding models (eqn 1)(1) [drawing 1]
Where n, number of binding sites, Qobs, observed fluorescence quenching and Qmax, the maximum fluorescence quenching at saturation.

For data set [3], the target named is T2, HiOASS (O-acetylserine sulfhydrylase) (Haemophilus influenzae, UniProt P45040).
Data set [4] has as its target T2, HiOASS (O-acetylserine sulfhydrylase). The experiment in a line: PLP fluorescence titration of ligands with HiOASS. It is filed as binding. More on the design: His tag (N); made in house; host or cells: E. coli BL21(DE3), pET28a(+). The settings on record: 20 mM Tris pH 8.0.
For data set [5], the target named is T1, StOASS (O-acetylserine sulfhydrylase).
A further data set has as its system OASS (StOASS and HiOASS). It is filed as biochemical. The settings on record: purified enzymes; read-out: Km,OAS.
Data set [6] has as its target OASS. The arrangement: method as in PMID 10995767. As to conditions: from Kext, single-wavelength stopped flow; cited from earlier work.
Substrate in data set [7]: CC(=O)OC[C@H](N)C(=O)O
The experiment in a line: Steady state kinetic measurement of StOASS activity (ninhydrin-cysteine assay). It is filed as biochemical, Salmonella typhimurium. The settings on record: other: 0.1M Hepes, pH 7.5, 30 °C, 2 mM Na2S, OAS 1-10 mM. As for the experimental part:
Steady state kinetic measurement of StOASS activity in the reaction buffer (as in Fig S2).
OASS activity was measured by monitoring the cysteine formation. Data were fitted to Michaelis-Menten equation using origin 5.0. The Km(OAS) was estimated to be 0.89 […]
Enzyme assay: Assay is based on the specific reaction of ninhydrin with cysteine under strong acidic conditions and monitoring of modified cysteine (ninhydrin-cysteine adduct) at 560 nm. The reaction was allowed to proceed for 20 minutes (30 °C, linear phase) with varied concentrations of OAS (1- 10 mM, 2 mM Na2S) in the reaction buffer (0.1M Hepes, pH 7.5, 150 µl reaction volume). The reaction was terminated with 5% TFA and centrifuged at 11000 rpm for 2 min. 125 µl glacial acetic acid + 125 µl acidic ninhydrin reagent were added to 125 µl of supernatant. Samples were boiled for 10 min at 100°C and cooled to room temperature. 600 µl of chilled absolute ethanol was added to the mix and the absorbance at 560 nm was used for determining the amount of cysteine present in the sample. Cysteine liberated was determined from a standard curve plotted by using known concentrations of cysteine.

The mark [8] stands for this setting: 10°C, 20 mM Tris pH 8.0, 50 mM NaCl.
Setting [9] is: 15°C, 20 mM Tris pH 8.0, 50 mM NaCl.
The mark [10] stands for this setting: 20°C, 20 mM Tris pH 8.0, 50 mM NaCl.
Setting [11] is: 25°C, 20 mM Tris pH 8.0, 50 mM NaCl.
[12] abbreviates: 30°C, 20 mM Tris pH 8.0, 50 mM NaCl.
[13] abbreviates: 35°C, 20 mM Tris pH 8.0, 50 mM NaCl.
Where [14] appears, read: temperature not stated in the sentence (values match 30°C of Table 1).
Setting [15] is: [NaCl] 0.02 M, 20 mM Tris pH 8.0.
Where [16] appears, read: [NaCl] 0.1 M, 20 mM Tris pH 8.0.
The mark [17] stands for this setting: [NaCl] 0.2 M, 20 mM Tris pH 8.0.
The mark [18] stands for this setting: [NaCl] 0.5 M, 20 mM Tris pH 8.0.

“Also recorded” adds a separate entry of the source. Read-outs that look alike come from different tables or passages of the source.

Results on four molecules are retold here after article PMC3141655 (BMC Biochemistry, 2011).

In general, Kd refers to the free concentration of one partner at which half of the binding sites on the other are occupied at equilibrium, for simple one-to-one binding. One may read the Km as the substrate concentration at which the rate is half of its maximum.

T2 sequence (P45040 whole entry): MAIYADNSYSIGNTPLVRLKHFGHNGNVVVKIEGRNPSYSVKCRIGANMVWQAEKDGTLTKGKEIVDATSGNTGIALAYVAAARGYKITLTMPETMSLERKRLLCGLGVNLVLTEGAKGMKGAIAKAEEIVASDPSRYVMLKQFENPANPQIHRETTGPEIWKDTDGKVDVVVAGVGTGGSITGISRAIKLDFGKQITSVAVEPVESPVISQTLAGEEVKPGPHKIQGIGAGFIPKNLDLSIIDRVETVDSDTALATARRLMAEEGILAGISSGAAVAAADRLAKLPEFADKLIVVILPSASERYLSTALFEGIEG

Turning to `N[C@@H](CO)C(=O)O` [L-serine], the Kd is 4.2 mM on OASS [1] and ~3.7 mM in data set [2] (pH 9.5, 20 mM Tris, 20 mM NaCl, read-out: Kd (equilibrium dissociation constant)). Moreover, the “change of OASS PLP fluorescence upon addition of ligand” value is listed as “does not change OASS fluorescence; also recorded: does not change PLP” in data set [2] (pH 8.0 (20 mM Tris, 20 mM NaCl)) and “leads to changes in the OASS fluorescence; also recorded: increases the PLP fluorescence” in data set [2] (pH 9.5 (20 mM Tris, 20 mM NaCl)).

Regarding `CSCC[C@H](N)C(=O)O` [Methionine, L-methionine], the “enthalpic contribution to binding free energy” value in data set [3] came out at 8%. For the same molecule, the TdS in data set [3] (setting [8]) turned out to be 1.7 kcal/mol; in data set [3] (setting [10]), 1.91 kcal/mol; in data set [3] (setting [11]), 1.65 kcal/mol; in data set [3] (setting [12]), 1.84 kcal/mol; in data set [5] (setting [8]), 1.74 kcal/mol; in data set [5] (setting [9]) it was 1.72 kcal/mol. The TdS stood at 1.96 kcal/mol in data set [5] (setting [10]), 2.06 kcal/mol in data set [5] (setting [11]), 2.25 kcal/mol in data set [5] (setting [12]) and 2.41 kcal/mol in data set [5] (setting [13]). Also, the ΔG in data set [3] (setting [8]) is -1.72 ± 0.22 kcal/mol; in data set [3] (setting [9]), -1.72 ± 0.22 kcal/mol; in data set [3] (setting [10]), -1.96 ± 0.239 kcal/mol; in data set [3] (setting [11]), -1.82 ± 0.263 kcal/mol; in data set [3] (setting [12]), -2.01 ± 0.239 kcal/mol; in data set [4] ([NaCl] 0.02 M), -2.82 ± 0.048 kcal/mol. Also, the ΔG is -2.27 ± 0.12 kcal/mol in data set [4] ([NaCl] 0.1 M); -1.94 ± 0.12 kcal/mol in data set [4] ([NaCl] 0.2 M); -1.74 ± 0.14 kcal/mol in data set [4] ([NaCl] 0.5 M); -2.06 ± 0.19 kcal/mol in data set [5] (10°C, 20 mM Tris pH 8.0, 50 mM NaCl, two independent sites model); -2.06 ± 0.096 kcal/mol in data set [5] (setting [9]); -2.32 ± 0.12 kcal/mol in data set [5] (setting [10]). The ΔG in data set [5] (setting [11]) is -2.27 ± 0.12 kcal/mol; in data set [5] (setting [12]), -2.49 ± 0.19 kcal/mol; in data set [5] (setting [13]), -2.7 ± 0.311 kcal/mol; in data set [5] (setting [14]) it was -10.4 kJ/M; in data set [2] (setting [15]) it was -3.18 ± 0.024 kcal/mol; in data set [2] (setting [16]) it was -2.39 ± 0.024 kcal/mol. Moreover, the ΔG is -2.25 ± 0.024 kcal/mol in data set [2] (setting [17]) and -2.08 ± 0.024 kcal/mol in data set [2] (setting [18]). The ΔH was -0.048 ± 0.024 kcal/mol in data set [3] (setting [8]); -0.048 ± 0.024 kcal/mol in data set [3] (setting [9]); -0.048 ± 0.024 kcal/mol in data set [3] (setting [10]); -0.19 ± 0.024 kcal/mol in data set [3] (setting [11]); -0.17 ± 0.024 kcal/mol in data set [3] (setting [12]); -0.4 ± 0.1 kJ/M in data set [5] (25 mM HEPES, pH 8.0, 50 mM NaCl, 25°C). Besides, the ΔH in data set [5] (setting [8]) is -0.311 ± 0.024 kcal/mol; in data set [5] (setting [9]) it was -0.335 ± 0.024 kcal/mol; in data set [5] (20°C), -1.5 ± 0.1 kJ/M; in data set [5] (setting [10]), -0.359 ± 0.024 kcal/mol; in data set [5] (setting [11]) it was -0.22 ± 0.024 kcal/mol; in data set [5] (setting [12]) it was -0.239 ± 0.024 kcal/mol. Moreover, the figures for the ΔH in data set [5] (setting [13]) and in data set [5] (setting [14]) were -0.287 ± 0.024 kcal/mol and -1.0 ± 0.2 kJ/M, respectively. Besides, the Kobs in data set [4] ([NaCl] 0.02 M) is 1.5 ± 0.1 × 10^2 M^-1; in data set [4] ([NaCl] 0.1 M), 5.8 ± 0.1 × 10^1 M^-1; in data set [4] ([NaCl] 0.2 M), 3.4 ± 0.1 × 10^1 M^-1; in data set [4] ([NaCl] 0.5 M), 2.3 ± 0.1 × 10^1 M^-1; in data set [2] ([NaCl] 0.02 M, 20 mM Tris pH 8.0, similar for each of two sites) it was 2.9 ± 0.1 × 10^2 M^-1; in data set [2] ([NaCl] 0.02 M, 20 mM Tris pH 8.0, similar for each of two sites, listed as methionine), 290 M⁻¹. The Kobs in data set [2] (setting [16]) is given as 6.5 ± 0.1 × 10^1 M^-1; in data set [2] (setting [17]), 5.5 ± 0.1 × 10^1 M^-1; in data set [2] (setting [18]), 3.5 ± 0.1 × 10^1 M^-1. Further, the Qmax in data set [4] ([NaCl] 0.02 M) is 3.0; in data set [4] ([NaCl] 0.1 M), 0.5; in data set [4] ([NaCl] 0.2 M), 0.2; in data set [4] ([NaCl] 0.5 M), 0.2; in data set [2] (setting [16]) it was 1.0; in data set [2] (setting [17]), 1.4. This molecule showed a Qmax in data set [2] (setting [18]) of 0.5. In addition, the “N (number of binding sites)” value in data set [4] ([NaCl] 0.1 M), in data set [4] ([NaCl] 0.2 M), in data set [4] ([NaCl] 0.5 M), in data set [2] (setting [15]), in data set [2] (setting [16]) and in data set [2] (setting [17]) was 2 in each case. Moreover, the “N (number of binding sites)” value in data set [2] (setting [18]) was determined as 2. Besides, the TΔS in data set [5] (20°C) came out at 8.2 kJ/M. In data set [5] (temperature not given), the “net enthalpic contribution to total binding free energy” value was ~ 10%. Further, the “Qmax (maximum fluorescence quenching at saturation)” value in data set [2] (setting [15]) is 3.8. Further, in data set [2] (from K1,obs and K2,obs of the PLP fluorescence titration, read-out: Kd), the Kd was ~3.4 mM.

Turning to `CC(=O)OC[C@H](N)C(=O)O` [OAS, O-acetylserine], the Kd in data set [3] was ~0.77 mM; in data set [5] it was 0.56 mM; on OASS [6], ~5.6 mM. Moreover, the “contribution of enthalpy to total binding free energy” value in data set [3] (25°C) and in data set [5] (25°C) was “less than 3%” throughout. In data set [3] (setting [11]), the binding constant was ~ 1.3 ± 0.4 × 10^3 M^-1. The enthalpy value in data set [3] (setting [11]) is 0.45 ± 0.3 kJ/M. Further, the ΔG is -16.9 kJ/M in data set [3] (setting [11]) and -17.6 kJ/M in data set [5] (setting [11]). In the data set with OASS (StOASS and HiOASS), the Km was 900 to 1400 µM. The apparent binding constant in data set [5] (setting [11]) is reported as ~ 1.8 ± 0.6 × 10^3 M^-1.

B1: StOASS (Salmonella enterica subsp. enterica serovar Typhimurium str. LT2) (protein)
chain: MSKIYEDNSLTIGHTPLVRLNRIGNGRILAKVESRNPSFSVKCRIGANMIWDAEKRGVLKPGVELVEPTSGNTGIALAYVAAARGYKLTLTMPETMSIERRKLLKALGANLVLTEGAKGMKGAIQKAEEIVASDPQKYLLLQQFSNPANPEIHEKTTGPEIWEDTDGQVDVFISGVGTGGTLTGVTRYIKGTKGKTDLITVAVEPTDSPVIAQALAGEEIKPGPHKIQGIGAGFIPGNLDLKLIDKVVGITNEEAISTARRLMEEEGILAGISSGAAVAAALKLQEDESFTNKNIVVILPSSGERYLSTALFADLFTEKELQQ
notes: His tag (N); made in house; host or cells: E. coli BL21(DE3), pET28a(+)
For the molecule B1, the Km in data set [7] is 890 µM.
